Data taken from publication PMC11571207, “Stereorandomized Oncocins with Preserved Ribosome Binding and Antibacterial Activity” (Journal of Medicinal Chemistry, 2024).
Read-outs that look alike come from different tables or passages of the source. No end group written: not given here.

Legend:
[1] = system: P. aeruginosa PA14 4.18 (pmrB); settings: for MIC P. aeruginosa PA14 4.18: supplement CSV
human red blood cells = assay: Hemolysis assay, minimum hemolytic concentration
P. aeruginosa ZEM-1A = assay: microbe, parasite or virus in culture
In short: (§1)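 Minimal inhibitory concentrations come from broth microdilution in MH medium, with a top peptide concentration of 64 μg/mL halved serially.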

[2] = system: P. aeruginosa PA14 2P4 (pmrB); assay: microbe, parasite or virus in culture; settings: for MIC P. aeruginosa PA14 2P4: supplement CSV
In short: as §1

E. cloacae = assay: microbe, parasite or virus in culture; settings: for MIC E. cloacae: supplement CSV
In short: as §1

K. pneumoniae OXA-48 = assay: microbe, parasite or virus in culture; settings: for MIC K. pneumoniae OXA-48: supplement CSV
In short: as §1

P. aeruginosa ZEM9A = assay: microbe, parasite or virus in culture; settings: for MIC P. aeruginosa ZEM9A: supplement CSV
In short: as §1

P. aeruginosa PA14 = assay: microbe, parasite or virus in culture; settings: for MIC P. aeruginosa PA14: supplement CSV
In short: as §1

E. coli W3110 = assay: microbe, parasite or virus in culture; settings: for MIC E. coli W3110: supplement CSV
In short: (§2)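 Read-out was visible growth after MTT addition, the MIC being the lowest inhibitory peptide concentration. Bacteria grown to log phase in LB were exposed in MH medium to peptide from 64 μg/mL in twofold dilutions for 15-18h at 37°C.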

K. pneumoniae NCTC 418 = assay: microbe, parasite or virus in culture; settings: for MIC K. pneumoniae NCTC418: supplement CSV
In short: as §2

A. baumannii ATCC19606 = assay: microbe, parasite or virus in culture; settings: for MIC A. baumannii ATCC19606: supplement CSV
In short: as §2

P. aeruginosa PAO1 = assay: microbe, parasite or virus in culture; settings: for MIC P. aeruginosa PAO1: supplement CSV
In short: as §2

S. aureus COL (MRSA) = assay: microbe, parasite or virus in culture; settings: for MIC S. aureus COL (MRSA): supplement CSV
In short: as §2

[3] = polymyxin B resistant strain, 12.5% MHB pH 7.4, 16–20 h at 37 °C
[4] = polymyxin B resistant strain, full MHB pH 7.4, 16–20 h at 37 °C

Sequence: VDKPPYLPRPRPPRRIYNR [sr8Cterm-Onc] (VDKPPYLPRPRPPRRIYNR-NH2; also: residues 12-19 stereorandomized (1:1 L/D mixture))
- MIC P. aeruginosa PA14 4.18 (pmrB), 12.5% MHB [1, 3]: 8 µg/mL
- MIC P. aeruginosa PA14 4.18 (pmrB), full MHB [1, 4]: 64 µg/mL
- MIC P. aeruginosa PA14 4.18 ([1]; 12.5% MH pH 7.4): 8 µg/mL
- MIC P. aeruginosa PA14 4.18 ([1]; full MH pH 7.4): 64 µg/mL
- Haemolysis on hRBC, MHC (human red blood cells; 2.5% human red blood cells (final) in 10 mM phosphate, 150 mM NaCl, pH 7.4, 25 °C, 4 h, visual inspection): >1000 µg/mL
- MHC human red blood cells (human red blood cells; supplement CSV): >1000 µg/mL
- MIC P. aeruginosa ZEM-1A, 12.5% MHB (P. aeruginosa ZEM-1A; clinical isolate, 12.5% MHB pH 7.4, 16–20 h at 37 °C, cells marked c: single measurement (in duplicates)): 4 to 8 µg/mL
- MIC P. aeruginosa ZEM-1A, full MHB (P. aeruginosa ZEM-1A; clinical isolate, full MHB pH 7.4, 16–20 h at 37 °C, cells marked c: single measurement (in duplicates)): 64 µg/mL
- MIC P. aeruginosa ZEM-1A (P. aeruginosa ZEM-1A; supplement CSV, 12.5% MH pH 7.4): 4 to 8 µg/mL
- MIC P. aeruginosa PA14 2P4 (pmrB), 12.5% MHB [2, 3]: 2 µg/mL
- MIC P. aeruginosa PA14 2P4 (pmrB), full MHB [2, 4]: > 64 µg/mL
- MIC P. aeruginosa PA14 2P4 ([2]; 12.5% MH pH 7.4): 2 µg/mL
- MIC P. aeruginosa PA14 2P4 ([2]; full MH pH 7.4): >64 µg/mL
- MIC E. cloacae, 12.5% MHB (E. cloacae; 12.5% MHB pH 7.4, 16–20 h at 37 °C): 0.5 µg/mL
- MIC E. cloacae, full MHB (E. cloacae; full MHB pH 7.4, 16–20 h at 37 °C): > 64 µg/mL
- MIC E. cloacae (E. cloacae; 12.5% MH pH 7.4): 0.5 µg/mL
- MIC E. cloacae (E. cloacae; full MH pH 7.4): >64 µg/mL
- MIC K. pneumoniae OXA-48, 12.5% MHB (K. pneumoniae OXA-48; carbapenem-resistant, 12.5% MHB pH 7.4, 16–20 h at 37 °C): 16 µg/mL
- MIC K. pneumoniae OXA-48, full MHB (K. pneumoniae OXA-48; carbapenem-resistant, full MHB pH 7.4, 16–20 h at 37 °C): 32 µg/mL
- MIC K. pneumoniae OXA-48 (K. pneumoniae OXA-48; 12.5% MH pH 7.4): 16 µg/mL
- MIC K. pneumoniae OXA-48 (K. pneumoniae OXA-48; full MH pH 7.4): 32 µg/mL
- MIC P. aeruginosa ZEM9A, 12.5% MHB (P. aeruginosa ZEM9A; clinical isolate, 12.5% MHB pH 7.4, 16–20 h at 37 °C): 8 µg/mL
- MIC P. aeruginosa ZEM9A, full MHB (P. aeruginosa ZEM9A; clinical isolate, full MHB pH 7.4, 16–20 h at 37 °C): > 64 µg/mL
- MIC P. aeruginosa ZEM9A (P. aeruginosa ZEM9A; 12.5% MH pH 7.4): 8 µg/mL
- MIC P. aeruginosa ZEM9A (P. aeruginosa ZEM9A; full MH pH 7.4): >64 µg/mL
- MIC P. aeruginosa PA14, 12.5% MHB (P. aeruginosa PA14; 12.5% MHB pH 7.4, 16–20 h at 37 °C, two different duplicate MIC determinations): 8 µg/mL
- MIC P. aeruginosa PA14, full MHB (P. aeruginosa PA14; full MHB pH 7.4, 16–20 h at 37 °C, two different duplicate MIC determinations): > 64 µg/mL
- MIC P. aeruginosa PA14 (P. aeruginosa PA14; 12.5% MH pH 7.4): 8 µg/mL
- MIC P. aeruginosa PA14 (P. aeruginosa PA14; full MH pH 7.4): >64 µg/mL
- MIC E. coli, 12.5% MHB (E. coli W3110; E. coli W3110, 12.5% Müller–Hinton medium, 16–20 h at 37 °C, broth microdilution): 4 µg/mL
- MIC E. coli, Full MHB (E. coli W3110; E. coli W3110, full Müller–Hinton medium, 16–20 h at 37 °C, broth microdilution): 8 µg/mL
- MIC E. coli W3110 (E. coli W3110; 12.5% MH pH 7.4): 4 µg/mL
- MIC E. coli W3110 (E. coli W3110; full MH pH 7.4): 8 µg/mL
- MIC K. pneumoniae, 12.5% MHB (K. pneumoniae NCTC 418; K. pneumoniae NCTC 418, 12.5% Müller–Hinton medium, 16–20 h at 37 °C): 2 µg/mL
- MIC K. pneumoniae, Full MHB (K. pneumoniae NCTC 418; K. pneumoniae NCTC 418, full Müller–Hinton medium, 16–20 h at 37 °C): 4 µg/mL
- MIC K. pneumoniae NCTC418 (K. pneumoniae NCTC 418; 12.5% MH pH 7.4): 2 µg/mL
- MIC K. pneumoniae NCTC418 (K. pneumoniae NCTC 418; full MH pH 7.4): 4 µg/mL
- MIC A. baumannii, 12.5% MHB (A. baumannii ATCC19606; A. baumannii ATCC19606, 12.5% Müller–Hinton medium, 16–20 h at 37 °C): 4 µg/mL
- MIC A. baumannii, Full MHB (A. baumannii ATCC19606; A. baumannii ATCC19606, full Müller–Hinton medium, 16–20 h at 37 °C): 32 µg/mL
- MIC A. baumannii ATCC19606 (A. baumannii ATCC19606; 12.5% MH pH 7.4): 4 µg/mL
- MIC A. baumannii ATCC19606 (A. baumannii ATCC19606; full MH pH 7.4): 32 µg/mL
- MIC P. aeruginosa, 12.5% MHB (P. aeruginosa PAO1; P. aeruginosa PAO1, 12.5% Müller–Hinton medium, 16–20 h at 37 °C): 8 µg/mL
- MIC P. aeruginosa, Full MHB (P. aeruginosa PAO1; P. aeruginosa PAO1, full Müller–Hinton medium, 16–20 h at 37 °C): 64 µg/mL
- MIC P. aeruginosa PAO1 (P. aeruginosa PAO1; 12.5% MH pH 7.4): 8 µg/mL
- MIC P. aeruginosa PAO1 (P. aeruginosa PAO1; full MH pH 7.4): 64 µg/mL
- MIC S. aureus, 12.5% MHB (S. aureus COL (MRSA); S. aureus COL (MRSA), 12.5% Müller–Hinton medium, 16–20 h at 37 °C): > 16 µg/mL
- MIC S. aureus, Full MHB (S. aureus COL (MRSA); S. aureus COL (MRSA), full Müller–Hinton medium, 16–20 h at 37 °C): > 64 µg/mL
- MIC S. aureus COL (MRSA) (S. aureus COL (MRSA); 12.5% MH pH 7.4): >16 µg/mL
- MIC S. aureus COL (MRSA) (S. aureus COL (MRSA); full MH pH 7.4): >64 µg/mL
